20 molecules from article PMC5725665, “Discovery of a Highly Selective Cell‐Active Inhibitor of the Histone Lysine Demethylases KDM2/7” (Angewandte Chemie (International Ed. in English), 2017) can be followed below.

One experiment concerns the target T1, JMJD2A (KDM4A) (Homo sapiens, UniProt O75164).
T1 sequence (O75164 1-1064): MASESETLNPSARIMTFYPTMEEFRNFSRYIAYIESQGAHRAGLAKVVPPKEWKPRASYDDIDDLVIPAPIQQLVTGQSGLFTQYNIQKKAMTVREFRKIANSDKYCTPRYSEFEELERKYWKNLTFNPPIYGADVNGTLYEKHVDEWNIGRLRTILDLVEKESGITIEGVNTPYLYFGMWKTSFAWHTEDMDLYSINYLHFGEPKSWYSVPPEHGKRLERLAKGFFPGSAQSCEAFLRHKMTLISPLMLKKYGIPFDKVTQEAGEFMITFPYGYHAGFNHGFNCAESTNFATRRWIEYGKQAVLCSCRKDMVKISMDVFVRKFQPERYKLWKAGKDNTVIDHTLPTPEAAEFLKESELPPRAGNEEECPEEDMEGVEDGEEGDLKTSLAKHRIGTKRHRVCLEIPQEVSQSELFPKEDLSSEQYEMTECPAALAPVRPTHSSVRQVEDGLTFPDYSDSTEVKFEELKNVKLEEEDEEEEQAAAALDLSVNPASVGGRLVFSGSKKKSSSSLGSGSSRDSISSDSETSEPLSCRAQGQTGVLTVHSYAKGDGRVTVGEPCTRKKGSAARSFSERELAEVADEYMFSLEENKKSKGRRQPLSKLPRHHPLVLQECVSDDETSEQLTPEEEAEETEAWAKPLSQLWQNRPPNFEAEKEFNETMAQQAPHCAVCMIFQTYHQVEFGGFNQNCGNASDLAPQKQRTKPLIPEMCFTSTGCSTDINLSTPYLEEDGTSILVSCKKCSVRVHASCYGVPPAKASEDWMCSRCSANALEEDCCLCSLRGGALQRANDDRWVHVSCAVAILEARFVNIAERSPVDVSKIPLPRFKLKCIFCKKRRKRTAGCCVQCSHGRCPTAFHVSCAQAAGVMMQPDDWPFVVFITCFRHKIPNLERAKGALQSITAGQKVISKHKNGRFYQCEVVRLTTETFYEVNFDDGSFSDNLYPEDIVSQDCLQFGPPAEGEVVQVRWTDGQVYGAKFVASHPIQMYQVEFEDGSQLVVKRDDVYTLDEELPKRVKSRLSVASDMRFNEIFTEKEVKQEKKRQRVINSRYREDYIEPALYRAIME
Nature of the experiment: biochemical. Set-up: AlphaScreen histone demethylase activity assay. The note with it: read-out: KDM4A % Inhib. (18.75 uM).
On to `CC(=O)N1c2ccccc2[C@](C#N)(c2ccccc2)[C@H]1c1cccc(/C=C/CCCCCN2CCCC2)c1` (racemic) [compound 9, 9], for which the inhibition at 18.75 µM worked out at 3.4%.

Regarding `CC(=O)N1c2ccccc2C(C#N)(c2ccccc2)C1c1ccc(C#CCCCCCN2CCCC2)o1` (centres unmarked) [compound 133, 133], the inhibition at 18.75 µM is 19.8%.

For the molecule `CC(=O)N1c2ccccc2C(C#N)(c2ccccc2)C1c1cc(C#CCCCCCN2CCCC2)co1` (centres unmarked) [compound 134, 134], the inhibition at 18.75 µM was determined as 19.4%.

In a further experiment the target is T2, KDM2A (Homo sapiens, UniProt Q9Y2K7).
T2 construct: isolated enzyme
T2 sequence (Q9Y2K7 1-517 limits assumed): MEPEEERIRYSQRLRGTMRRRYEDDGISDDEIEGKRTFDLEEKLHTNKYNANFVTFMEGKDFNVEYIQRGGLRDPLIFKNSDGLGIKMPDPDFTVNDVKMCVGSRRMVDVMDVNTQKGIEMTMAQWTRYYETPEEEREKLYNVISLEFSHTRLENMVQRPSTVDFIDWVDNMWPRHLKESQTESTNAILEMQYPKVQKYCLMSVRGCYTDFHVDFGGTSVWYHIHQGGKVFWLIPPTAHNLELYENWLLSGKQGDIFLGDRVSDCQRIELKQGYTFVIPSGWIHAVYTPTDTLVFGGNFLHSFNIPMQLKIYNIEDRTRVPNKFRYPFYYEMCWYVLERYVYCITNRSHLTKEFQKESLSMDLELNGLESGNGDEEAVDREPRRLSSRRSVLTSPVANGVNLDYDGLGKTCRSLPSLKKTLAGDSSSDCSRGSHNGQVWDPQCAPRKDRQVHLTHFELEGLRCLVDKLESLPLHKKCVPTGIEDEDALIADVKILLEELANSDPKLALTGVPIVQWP
Nature of the experiment: biochemical. The note with it: inhibitor. Set-up: RapidFire MS histone peptide demethylation assay. How it is done: [formula] Scheme 1 A) General synthetic strategy for racemic synthesis of KDM2A inhibitors. Reagents and conditions: i) Zn powder (10 equiv), NH4Cl (15 equiv), 5:1 acetone/H2O or H2, Pd/C (10 % w/w), EtOAc; ii) ArCHO (1.3 equiv), MgSO4 (5 equiv), PhMe or ArCHO (1.3 equiv), pyrrolidine (0.1 equiv), 3 Å sieves, CH2Cl2; iii) KO^tBu (1.1 equiv), PhMe, 0 °C; iv) R^3COCl (2–5 equiv), pyridine (2–5 equiv), CH2Cl2; v) metal‐catalysed cross‐coupling. B) Key structure–activity relationships. IC50 values were determined by RapidFire MS and confirmed by AlphaScreen. All compounds are racemic. C) Catalytic enantioselective synthesis. Reagents and conditions: i) CsOH⋅H2O (2.0 equiv), catalyst 14/16 (10 mol %), PhMe, −30 °C. Catalyst 14: 89 %, d.r. 10:1, e.r. 88:12; catalyst 16: 84 %, d.r. 7:1, e.r. 17:83; ii) CH3COCl (2.0 equiv), pyridine (2.0 equiv), CH2Cl2; iii) H2, Pd/C (10 % w/w), 88 % (2 steps); iv) K2CO3 (5 equiv), Br(CH2)7Br (4 equiv), acetone, reflux, 38 %; v) K2CO3 (5 equiv) pyrrolidine (4 equiv), CH3CN, 65 %; vi) PhN(SO2CF3)2 (1.1 equiv), DIPEA (2.0 equiv), CH2Cl2, 0 °C, 85 %; vii) 7‐pyrrolidine‐hept‐1‐yne (1.5 equiv), PdCl2(PPh3)2 (5 mol %), CuI (5 mol %), HN(^iPr)2, 75 °C, 79 %; viii) H2, Pd/C (10 % w/w), MeOH, 74 %. DIPEA=(^iPr)2NEt. A base‐mediated 5‐endo‐trig cyclization of a C‐2‐substituted aromatic imine afforded the racemic indoline core with two adjacent stereocenters. Subsequent acylation of the indoline ring system conferred stability towards oxidation and provided a handle for modulating polarity. Finally, metal‐catalysed cross‐coupling of the aryl bromide provided access to a variety of linkers between the indoline core and pyrrolidine capping group. In total, 45 racemic compounds were synthesized, and IC50 values for inhibition of KDM2A were determined using two orthogonal enzyme activity assays: AlphaScreen25 and RapidFire MS26 (see Section S3.1 in the Supporting Information for complete inhibition data). Key structure–activity relationships are summarized below (Scheme 1 B, compounds 2–12).
For `N#CCC(=O)N1c2ccccc2[C@](C#N)(c2ccccc2)[C@H]1c1cncc(CCCCCCCN2CCCC2)c1` (relative stereo) [compound 139, 139], the “KDM2A RapidFire pIC50” value turned out to be 6.368.

`N#C[C@]1(c2ccccc2)c2ccccc2N[C@@H]1c1cncc(CCCCCCCN2CCCC2)c1` (relative stereo) [compound 142, 142]: the “KDM2A RapidFire pIC50” value is 6.708.

For `N#C[C@]1(c2ccccc2)c2ccccc2N[C@@H]1c1cncc(C#CCCCCCN2CCCC2)c1` (relative stereo) [compound 137, 137], the “KDM2A RapidFire pIC50” value is 5.884.

In the case of `CC(=O)N1c2ccccc2[C@@](C#N)(c2ccccc2)[C@@H]1c1cncc(OCCCCCCCN2CCCC2)c1` [(S,S)-3], the “KDM2A RapidFire pIC50” value is reported as 6.401.

Still in this experiment, the particulars now being: read-out: KDM2A RapidFire pIC50 (converted).
As to `CC(=O)N1c2ccccc2[C@](C#N)(c2ccccc2)[C@H]1c1cncc(/C=C\CCCCCN2CCCC2)c1` (racemic) [compound 152, (2RS,3RS)-1-Acetyl-3-phenyl-2-(5-((Z)-7-(pyrrolidin-1-yl)hept-1-en-1-yl)pyridin-3-yl)indoline-3-carbonitrile], the IC50 is 0.838 µM.

Turning to `CC(=O)N1c2ccccc2[C@](C#N)(c2ccccc2)[C@H]1c1cccc(OCCCCCCN2CCCC2)c1` (racemic) [compound 58, (2RS,3RS)-1-Acetyl-3-phenyl-2-(3-((6-(pyrrolidin-1-yl)hexyl)oxy)phenyl)indoline-3-carbonitrile], the IC50 was 1.03 µM.

For `CC(=O)N1c2ccccc2[C@](C#N)(c2ccccc2)[C@H]1c1cccc(OCCCCCCCCCN2CCCC2)c1` (racemic) [compound 62, (2RS,3RS)-1-Acetyl-3-phenyl-2-(3-((9-(pyrrolidin-1-yl)nonyl)oxy)phenyl)indoline-3-carbonitrile], the IC50 is 1.51 µM.

For the molecule `N#C[C@]1(c2ccccc2)c2ccccc2N(C(=O)c2ccc(C(F)(F)F)cc2)[C@@H]1c1cccc(OCCCCCCCN2CCCC2)c1` (racemic) [compound 66, (2RS,3RS)-3-Phenyl-2-(3-((7-(pyrrolidin-1-yl)heptyl)oxy)phenyl)-1-(4-(trifluoromethyl)benzoyl)indoline-3-carbonitrile], the IC50 was 1.32 µM.

For `CC(=O)N1c2ccccc2[C@](C#N)(c2ccccc2)[C@H]1c1cccc(OCCCCCN2CCCC2)c1` (racemic) [compound 57, (2RS,3RS)-1-Acetyl-3-phenyl-2-(3-((5-(pyrrolidin-1-yl)pentyl)oxy)phenyl)indoline-3-carbonitrile], the IC50 is 1.25 µM.

For the molecule `CC(C)CC(=O)N1c2ccccc2[C@](C#N)(c2ccccc2)[C@H]1c1cccc(OCCCCCCCN2CCCC2)c1` (racemic) [compound 65, (2RS,3RS)-1-(3-Methylbutanoyl)-3-phenyl-2-(3-((7-(pyrrolidin-1-yl)heptyl)oxy)phenyl)indoline-3-carbonitrile], the IC50 is 1.35 µM.

`CC(=O)N1c2ccccc2[C@](C#N)(c2ccccc2)[C@H]1c1cccc(OCCCCCCCN2CCCCC2)c1` (racemic) [compound 69, (2RS,3RS)-1-Acetyl-3-phenyl-2-(3-((7-(piperidin-1-yl)heptyl)oxy)phenyl)indoline-3-carbonitrile]: the IC50 was 1.07 µM.

As for `CC(=O)N1c2ccccc2[C@](C#N)(c2ccccc2)[C@H]1c1cccc(OCCCCCCCCN2CCCC2)c1` (racemic) [compound 60, (2RS,3RS)-1-Acetyl-3-phenyl-2-(3-((8-(pyrrolidin-1-yl)octyl)oxy)phenyl)indoline-3-carbonitrile], the IC50 is 1.38 µM.

In the case of `CC(=O)N1c2ccccc2[C@](C#N)(c2ccccc2)[C@H]1c1cccc(OCCCCCCCN2CCOCC2)c1` (racemic) [compound 70, (2RS,3RS)-1-Acetyl-2-(3-((7-morpholinoheptyl)oxy)phenyl)-3-phenylindoline-3-carbonitrile], the IC50 is 3.26 µM.

Consider `CC(=O)N1c2ccccc2[C@](C#N)(c2ccccc2)[C@H]1c1cccc(OCCCCCCCN2CCCC2)c1` (racemic) [compound 59, (2RS,3RS)-1-Acetyl-3-phenyl-2-(3-((7-(pyrrolidin-1-yl)heptyl)oxy)phenyl)indoline-3-carbonitrile], for which the IC50 is 0.893 µM.

Consider `N#C[C@]1(c2ccccc2)c2ccccc2N(C(=O)c2ccco2)[C@@H]1c1cccc(OCCCCCCCN2CCCC2)c1` (racemic) [compound 64, (2RS,3RS)-1-(Furan-2-carbonyl)-3-phenyl-2-(3-((7-(pyrrolidin-1-yl)heptyl)oxy)phenyl)indoline-3-carbonitrile], for which the IC50 is 0.883 µM.

For the molecule `N#C[C@]1(c2ccccc2)c2ccccc2N(C(=O)c2ccccc2)[C@@H]1c1cccc(OCCCCCCCN2CCCC2)c1` (racemic) [compound 63, (2RS,3RS)-1-Benzoyl-3-phenyl-2-(3-((7-(pyrrolidin-1-yl)heptyl)oxy)phenyl)indoline-3-carbonitrile], the IC50 is 2.02 µM.

Consider `CC(=O)N1c2ccccc2[C@](C#N)(c2ccccc2)[C@H]1c1cccc(OCCCCN2CCCC2)c1` (racemic) [compound 56, (2RS,3RS)-1-Acetyl-3-phenyl-2-(3-(4-(pyrrolidin-1-yl)butoxy)phenyl)indoline-3-carbonitrile], for which the IC50 is 2.02 µM.
